Results as given in patent US11472812B2, “Anti-cancer compounds targeting Ral GTPases and methods of using the same” (The Regents of the University of Colorado, a body corporate, priority 2014, dated 2022).
“Also recorded” adds a separate entry of the source. Like-named read-outs stand apart in the source and are kept apart here.

What was measured:
[1] = molecular target: T1, RalB-GDP (Homo sapiens, UniProt P11234, Q72L); assay: TROSY 15N-HSQC NMR chemical shift perturbation; assay type: binding; details: 100 μM RalB-GDP, 100 μM compound
T1 construct: made in house
T1 sequence (P11234 1-206 Q72L): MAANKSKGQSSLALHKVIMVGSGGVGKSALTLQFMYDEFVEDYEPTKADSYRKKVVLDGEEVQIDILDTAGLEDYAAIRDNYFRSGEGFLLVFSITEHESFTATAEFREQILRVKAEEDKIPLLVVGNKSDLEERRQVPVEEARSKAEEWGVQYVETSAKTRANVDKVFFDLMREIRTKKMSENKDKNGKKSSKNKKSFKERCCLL
Source text: (§1) To confirm the direct binding of the compounds to the target, we used TROSY ^15N-HSQC (Transverse Relaxation-Optimized Heteronuclear Single Quantum Coherence) NMR. RalB (Q72L mutant) in a pET16b (Novagen) plasmid was a kind gift from Dr. Darerca Owen (Cambridge University). RalB was purified with additional steps for loading with GDP or the non-hydrolyzable form of GTP, GMPNPP (GNP, Sigma-Aldrich). Uniform ^13C^15N-double labeled protein was produced in M9 media supplemented with ^15N-NH4Cl and ^13C-glucose. Samples were prepared for NMR in 50 mM sodium phosphate, pH 7.6, 100 mM NaCl and 1 mM MgCl2. All NMR experiments were recorded on an Agilent 900 MHz system at 25° C. Resonance assignments for the RalB-GNP complex were obtained from previously published studies deposited in Biological Magnetic Resonance Bank (BMRB, code: 15230). Chemical shift assignments of the RalB-GDP complex were obtained independently using HNCACB, CBCA(CO)NH and COCNH-TOCSY experiments. All NMR data was processed using NMRPipe and analyzed using CCPNMR analysis program. Assignment were obtained by automated assignment using PINE followed by manual verification. ^15N-HSQC experiments were used to monitor amide shifts from the RalB protein (100 μM) following the addition of compound reconstituted in deuterated DMSO. DMSO concentrations in the final sample were 0.5% or 1%; control samples were made with 0.5% or 1% deuterated DMSO and all samples containing compounds were compared to their corresponding […] control.
(§2) Because only the NMR structure of RalB in complex with GNP has been solved (PDB code 2KE5, BMRB entry 15230), we focused on this isoform. The ^15N-HSQC NMR spectrum of RalB-GDP and RalB-GNP were first determined and the chemical shift differences were analyzed. NMR spectra were then recorded in the presence of RBC8 or DMSO control. Binding of small molecules to the protein was monitored by the perturbation of ^15N-HSQC protein amide peaks.
(§3) A detailed NMR titration of the binding between BQU57 and RalB-GDP was carried out. […] In the absence of a crystal structure of RalB-GDP, a homology model was generated based on the sequence similarity to RalA-GDP and the residues that experienced chemical shift changes in the presence of drug was mapped onto this model (FIG. 3E).

[2] = molecular target: T2, RalB-GNP (Homo sapiens, UniProt P11234, Q72L); assay: TROSY 15N-HSQC NMR chemical shift perturbation; assay type: binding; details: 100 μM RalB-GNP, 100 μM compound
T2 construct: made in house
T2 sequence (P11234 1-206 Q72L): T1 sequence (P11234 1-206 Q72L)
Source text: as §1, §2, §3

[3] = test system: H2122 cells; assay: Soft agar colony formation (anchorage-independent growth); assay type: cell-based, human; details: for further growth inhibition by drug after siRNA knockdown of RalA and RalB: H2122 cells with siRNA knockdown of RalA and RalB; for growth inhibition effect with overexpression of constitutively active RalAG23V or RalBG23V: H2122 cells, transient transfection
Procedure: (§4) The effects of RBC8 and BQU57 on human lung cancer cell growth were evaluated. Because Ral is well-known for its role in anchorage independence, we carried out growth inhibition assays in soft agar. Four human lung cancer cells H2122, H358, H460 and Calu6 were used in a series of experiments to determine drug uptake, biologic specificity, and effect. To measure growth inhibition of human lung cancer cells under anchorage-independent conditions in soft agar, cells were seeded into 6-well plates (coated with a base layer made of 2 ml of 1% low-melting-point agarose) at 15,000 cells per well in 3 ml of 0.4% low-melting-point agarose containing various concentration of drug. Two to four weeks (depending on cell line) after incubation, cells were stained with 1 mg/ml MTT and colonies were counted under a microscope.
(§5) For the chemo-genetic experiments, siRNA treated cells were seeded into soft agar in the presence of various concentrations of drug. For the overexpression experiments, H358 cells stably overexpressing FLAG, FLAG-RalA^G23V or FLAG-RalB^G23V were generated and cells were subjected to the soft agar colony formation assay in the presence of drug. Attempts to stably overexpress FLAG-RalA^G23V or FLAG-RalB^G23V in H2122 cells were unsuccessful and the rescue experiments with H2122 were carried out 72 hrs after the transient transfection with FLAG, FLAG-RalA^G23V or FLAG-RalB^G23V using the soft agar colony formation assay in the presence of drug.

[4] = test system: H358 cells; assay: as above; assay type: cell-based, human; details: for further growth inhibition by drug after siRNA knockdown of RalA and RalB: H358 cells with siRNA knockdown of RalA and RalB; for growth inhibition effect with overexpression of constitutively active RalAG23V or RalBG23V: H358 cells, stable overexpression
Procedure: as §4, §5

[5] = test system: H2122 human lung cancer cells; assay: Cellular uptake, LC/MS-MS of cell lysates; assay type: in vitro ADME; details: 10 μM, 1-60 min
Procedure: To quantitate how well the test compounds get into cells, H2122 human lung cancer cells were seeded at 3×10^5 cells per well in 6-well plates and let sit for 16 h. Compounds (10 μM) were individually dosed in triplicate; cells were then collected into 500 μl ice-cold ACN:MeOH:H2O (1:1:1) at different time points (1, 5, 15, 30 and 60 min). Drug concentrations in cell lysates were then determined using LC/MS-MS methods as described with respect to the pharmacokinetic and pharmacodynamic studies in mice, described in detail in Example 5, below.

[6] = test system: H2122 human lung cancer cells; assay: H2122 xenograft tumor growth; assay type: in vivo, nude mice; details: i.p. daily except weekends, initiated 24 h after inoculation; RBC8 50 mg/kg/d; BQU57 and BQU85 5, 10, 20, and 50 mg/kg/d
Procedure: We next determined compound entry into tumor tissue. To do so, athymic nude mice (Ncr nu/nu; National Cancer Institute, Fredrick, Md.) were received at 5 to 6 weeks of age and were allowed to acclimate for 2 weeks in sterile micro isolator cages with constant temperature and humidity. Mice had free access to food and water. H2122 cells in log-phase growth were harvested on the day of use. Cells were suspended in un-supplemented RPMI 1640 medium and 0.1 mL (2×10^5 cells) was injected s.c. four sites per mice. For H358 xenografts, cells (5×10^6) were mixed with matrigel (20% final concentration) and 0.1 mL was inoculated s.c. per site. After cell inoculation, mice were monitored daily, weighed twice weekly and caliper measurements begun when tumors visible. Tumor volume was calculated by (L×W2)/2, where L is longer measurement of tumor and W is the smaller tumor measurement. Drug treatment started the day after inoculation. Compounds were dissolved in DMSO and injected i.p. daily except weekends at 10/20/50 mg/kg. […] The effect of the Ral inhibitors on xenograft tumor growth was then tested in nude mice. Mice were inoculated subcutaneously with H2122 human lung cancer cells and treated intraperitoneally with 50 mg/kg/d (except weekends) of RBC8 24 h post inoculation.

Structure (SMILES)	binding to RalB-GDP by 15N-HSQC chemical shift changes [1]	binding to RalB-GNP by 15N-HSQC chemical shift changes [2]	further growth inhibition by drug after siRNA knockdown of RalA and RalB [3]	growth inhibition effect with overexpression of constitutively active RalAG23V or RalBG23V [3]	IC50 ([3]; Homo sapiens, NCI-H2122, read-out: IC50 (50% reduction in colony number))	further growth inhibition by drug after siRNA knockdown of RalA and RalB [4]	growth inhibition effect with overexpression of constitutively active RalAG23V or RalBG23V [4]	IC50 ([4]; Homo sapiens, NCI-H358, read-out: IC50 (50% reduction in colony number))	cellular uptake [5]	xenograft tumor growth inhibition [6]	IC50 ([3]; H2122, soft agar, 2-4 weeks, read-out: IC50 (50% reduction in colony number))	IC50 ([4]; H358, soft agar, 2-4 weeks, read-out: IC50 (50% reduction in colony number))
Cc1nn(C)c2c1C(c1ccc(C(F)(F)F)cc1)C(C#N)=C(N)O2 (centres unmarked) [BQU57, 6-amino-1,3-dimethyl-4-(4-(trifluoromethyl)phenyl)-1,4-dihydropyrano[2,3-c]pyrazole-5-carbonitrile]	binding to the predicted site	did not bind	did not result in significant further inhibition	rescue	2000 nM	did not result in significant further inhibition	rescue	1300 nM	readily get into cells	dose-dependent growth inhibition effects were observed; also recorded: inhibited xenograft tumor growth	–	–
COc1ccc(OC)c(C2C(C#N)=C(N)Oc3n[nH]c(-c4ccc5ccccc5c4)c32)c1 (centres unmarked) [RBC8]	showed changes in peak position of representative residues located in the allosteric site	did not bind	did not result in significant further inhibition	rescue	–	did not result in significant further inhibition	rescue	–	readily get into cells	inhibited xenograft tumor growth	3500 nM	3400 nM
